From PubChem BioAssay (NCI) come the findings set out here.

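Where inhibition never reached the appropriate level, the endpoint shown equals the highest concentration tested. Otherwise, values were interpolated linearly from a five-concentration, 48-hour dose response in 96-well plates. At the GI50, growth is halved. Definition used: TGI = concentration required for complete inhibition of growth.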 Bounds are passed on as bounds.

The first experiment relates to 786-0 renal. Briefly: NCI anticancer screen, dose series, 48 h.
Take `CCCC(C)c1cc(Cc2cc(Cl)cc(Cl)c2O)c(O)c(Cc2cc(Cl)cc(Cl)c2O)c1` (stereo not drawn): the GI50 is 1.64 µM and the TGI came to 6.78 µM.

The compound `C/C(=N\NS(=O)(=O)c1ccccc1)c1ccc(Cl)c(Cl)c1` had a TGI above 100 µM.

For `COc1ccc(-c2nn3c(-c4cc(F)c(Cl)cc4Cl)nnc3s2)cc1`, the GI50 was 33.4 µM and the TGI was above 100 µM.

Compound `CCCNC1=C(C(=O)OCC)C(=O)CO1` came in with a TGI above 100 µM.

In turn, `COC(=O)C(=O)C1(CCC(C)=O)c2ccccc2-c2c(C)ccc(C)c21` (stereo not drawn) displayed a TGI above 100 µM.

On to `O=C(NCCO)Nc1ccc(-c2nc(N3CCOCC3)c3cccn3n2)cc1`, for which the GI50 was 0.218 µM and the TGI was 6.14 µM.

As for `CC(C)c1cc(-c2n[nH]c(=O)n2-c2ccc3c(ccn3C)c2)c(O)cc1O`, the GI50 was 0.0686 µM and the TGI worked out at 45.4 µM.

For `COc1ccc2nc(-c3cccs3)cc(C(O)CN3CCSCC3)c2c1` (stereo not drawn), the TGI worked out at 46.2 µM.

The compound `N#C/C(=C\c1ccc(O)c(O)c1)C(N)=S` returned a TGI above 100 µM.

`O=C(CN1CCOCC1)Nc1nc(-c2ccc(Cl)cc2)cs1` showed a TGI above 100 µM.

As to `COc1ccc(-c2nc3sc4c(c3c(=O)[nH]2)CCCCCC4)cc1`, the GI50 was 8.08 µM and the TGI is above 33.2 µM.

`O=C1CC(c2ccc(O)cc2)C2(O1)C(=O)OC(C(O)CO)C2O` (stereo not drawn) registered a TGI above 100 µM.

As for `CC1=C(C)C(=O)c2c(cc3ccccn23)C1=O`, the TGI was 72.9 µM.

Regarding `CC1SC2=NC3=C(c4ccccc4C3=O)C(c3ccc(F)cc3)N2C1=O` (stereo not drawn), the TGI is above 100 µM.

For the compound `CC1C=C(OC(=O)c2ccccc2)C(=O)C(n2cc(F)c(=O)[nH]c2=O)O1` (stereo not drawn), the TGI was above 100 µM.

In the case of `COc1ccc(-c2ccc(/C=N/n3c(COc4ccc(Cl)cc4Cl)nn(CN4CCOCC4)c3=S)o2)c([N+](=O)[O-])c1`, the GI50 was 32.5 µM and the TGI is above 100 µM.

`OC(c1cc(-c2ccccc2)nc2ccc(Cl)cc12)C1CCCCN1` (stereo not drawn): the GI50 was 1.96 µM and the TGI stood at 4.57 µM.

Take `COc1ccc(OC)c(/C=C2\SC(=S)NC2=O)c1`: the GI50 was 30.8 µM and the TGI was above 100 µM.

The compound `CCN(CC)c1ccc(C(=O)c2ccccc2C(=O)O)c(O)c1` gave a TGI above 100 µM.

Take `CC(CCC(=O)O)[C@H]1CCC2[C@@H]3CC[C@@H]4CC(O)CC[C@]4(C)C3CC[C@@]21C` (stereo partly drawn): the GI50 was 49.3 µM and the TGI is above 100 µM.

In the case of `Nc1ccn(CCNCCn2cnc3nc(N)[nH]c(=O)c32)c(=O)n1`, the TGI was above 100 µM.

Another experiment deals with HCC-2998 colon. Briefly: NCI anticancer screen, dose series, 48 h.
On to `CCCC(C)c1cc(Cc2cc(Cl)cc(Cl)c2O)c(O)c(Cc2cc(Cl)cc(Cl)c2O)c1` (stereo not drawn), for which the GI50 is 1.42 µM and the TGI amounted to 10.5 µM.

For the compound `C/C(=N\NS(=O)(=O)c1ccccc1)c1ccc(Cl)c(Cl)c1`, the TGI is above 100 µM.

For the compound `COc1ccc(-c2nn3c(-c4cc(F)c(Cl)cc4Cl)nnc3s2)cc1`, the GI50 was 20.7 µM and the TGI turned out to be 48.7 µM.

For the compound `CCCNC1=C(C(=O)OCC)C(=O)CO1`, the TGI was above 100 µM.

`COC(=O)C(=O)C1(CCC(C)=O)c2ccccc2-c2c(C)ccc(C)c21` (stereo not drawn) returned a TGI above 100 µM.

`O=C(NCCO)Nc1ccc(-c2nc(N3CCOCC3)c3cccn3n2)cc1`: the GI50 was 0.488 µM and the TGI is above 100 µM.

With `CC(C)c1cc(-c2n[nH]c(=O)n2-c2ccc3c(ccn3C)c2)c(O)cc1O`, the GI50 was 0.0256 µM and the TGI came to 2.77 µM.

Consider `COc1ccc2nc(-c3cccs3)cc(C(O)CN3CCSCC3)c2c1` (stereo not drawn), for which the TGI is 58.9 µM.

The compound `N#C/C(=C\c1ccc(O)c(O)c1)C(N)=S` returned a TGI above 100 µM.

With `O=C(CN1CCOCC1)Nc1nc(-c2ccc(Cl)cc2)cs1`, the TGI was above 100 µM.

Regarding `COc1ccc(-c2nc3sc4c(c3c(=O)[nH]2)CCCCCC4)cc1`, the GI50 is above 33.2 µM and the TGI is above 33.2 µM.

Take `CC1=C(C)C(=O)c2c(cc3ccccn23)C1=O`: the TGI was found to be 29.9 µM.

Consider `CC1SC2=NC3=C(c4ccccc4C3=O)C(c3ccc(F)cc3)N2C1=O` (stereo not drawn), for which the TGI was above 100 µM.

Compound `CC1C=C(OC(=O)c2ccccc2)C(=O)C(n2cc(F)c(=O)[nH]c2=O)O1` (stereo not drawn) came in with a TGI above 100 µM.

Consider `COc1ccc(-c2ccc(/C=N/n3c(COc4ccc(Cl)cc4Cl)nn(CN4CCOCC4)c3=S)o2)c([N+](=O)[O-])c1`, for which the GI50 is 22.7 µM and the TGI came to 60.2 µM.

Regarding `OC(c1cc(-c2ccccc2)nc2ccc(Cl)cc12)C1CCCCN1` (stereo not drawn), the GI50 is 1.83 µM and the TGI came to 3.34 µM.

On to `CC(CCC(=O)O)[C@H]1CCC2[C@@H]3CC[C@@H]4CC(O)CC[C@]4(C)C3CC[C@@]21C` (stereo partly drawn), for which the GI50 was 22.2 µM and the TGI was 61 µM.

`Nc1ccn(CCNCCn2cnc3nc(N)[nH]c(=O)c32)c(=O)n1`: the TGI is above 100 µM.

Another experiment relates to HCT-116 colon. Briefly: NCI anticancer screen, dose series, 48 h.
Regarding `CCCC(C)c1cc(Cc2cc(Cl)cc(Cl)c2O)c(O)c(Cc2cc(Cl)cc(Cl)c2O)c1` (stereo not drawn), the GI50 was 0.384 µM and the TGI was determined as 3.97 µM.

The compound `C/C(=N\NS(=O)(=O)c1ccccc1)c1ccc(Cl)c(Cl)c1` had a TGI above 100 µM.

Take `COc1ccc(-c2nn3c(-c4cc(F)c(Cl)cc4Cl)nnc3s2)cc1`: the GI50 was 20.8 µM and the TGI amounted to 52.9 µM.

`CCCNC1=C(C(=O)OCC)C(=O)CO1` had a TGI above 100 µM.

As to `COC(=O)C(=O)C1(CCC(C)=O)c2ccccc2-c2c(C)ccc(C)c21` (stereo not drawn), the TGI is above 100 µM.

For `O=C(NCCO)Nc1ccc(-c2nc(N3CCOCC3)c3cccn3n2)cc1`, the GI50 is 1.85 µM and the TGI was above 100 µM.

With `CC(C)c1cc(-c2n[nH]c(=O)n2-c2ccc3c(ccn3C)c2)c(O)cc1O`, the GI50 was below 0.0141 µM and the TGI is 13.5 µM.

In the case of `N#C/C(=C\c1ccc(O)c(O)c1)C(N)=S`, the TGI was above 100 µM.
